In ChEMBL document CHEMBL4354794, “Potential Anticancer Agents Characterized from Selected Tropical Plants” (J Nat Prod, 2019):
pIC50: −log10 of the molar value.

Columns and labels:
Trypsin = Trypsin (Homo sapiens, UniProt P07477+P07478+P35030); assay: Inhibition of trypsin (unknown origin) using Z-FR-MCA as substrate by spectrofluorimetric method; assay type: protein assay
Cruzipain = Cruzipain (Trypanosoma cruzi, UniProt P25779); assay: Inhibition of Trypanosoma cruzi cruzain (unknown origin) using Z-FR-MCA as substrate by spectrofluorimetric method
Papain = target: T1, Papain (Carica papaya, UniProt P00784); assay: Inhibition of Papaya papain using Z-FR-MCA as substrate by spectrofluorimetric method
T1 sequence (P00784 whole entry): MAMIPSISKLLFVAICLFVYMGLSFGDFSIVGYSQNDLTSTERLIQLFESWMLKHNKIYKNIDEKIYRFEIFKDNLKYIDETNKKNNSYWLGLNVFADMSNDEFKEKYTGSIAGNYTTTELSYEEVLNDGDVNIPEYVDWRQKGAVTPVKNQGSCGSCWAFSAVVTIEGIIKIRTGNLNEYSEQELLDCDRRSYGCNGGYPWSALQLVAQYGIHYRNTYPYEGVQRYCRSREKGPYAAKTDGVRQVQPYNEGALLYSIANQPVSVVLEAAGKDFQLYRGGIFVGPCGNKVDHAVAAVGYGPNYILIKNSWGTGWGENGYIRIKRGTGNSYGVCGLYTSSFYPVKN

A549 [1] = assay: Antiproliferative activity against human A549 cells assessed as reduction in cell viability after 48 hrs by MTT assay; assay type: functional, cell-based; conditions: A549, 48 h
BGC-823 = assay: Antiproliferative activity against human BGC823 cells assessed as reduction in cell viability after 48 hrs by MTT assay; assay type: functional, cell-based; conditions: BGC-823, 48 h
HT-29 [2] = assay: Antiproliferative activity against human HT-29 cells assessed as reduction in cell viability; assay type: functional, cell-based
NCI-H1650 = assay: Antiproliferative activity against human NCI-H1650 cells assessed as reduction in cell viability after 72 hrs by CellTiter-Glo assay; assay type: functional, cell-based; conditions: NCI-H1650, 72 h
[3] = Antiproliferative activity against human KKU100 cells assessed as reduction in cell viability after 72 hrs by SRB assay; assay type: functional, cell-based; conditions: KKU100, 72 h
A549 [4] = assay: Antiproliferative activity against human A549 cells assessed as reduction in cell viability after 72 hrs by MTT assay; assay type: functional, cell-based; conditions: A549, 72 h
HT-29 [5] = assay: Antiproliferative activity against human HT-29 cells assessed as reduction in cell viability after 3 days by SRB assay; assay type: functional, cell-based; conditions: HT-29, 72 h
HepG2 = assay: Antiproliferative activity against human HepG2 assessed as reduction in cell viability incubated for 48 hrs by AlamarBlue assay; assay type: functional, cell-based; conditions: HepG2, 48 h
MCF7 = assay: Antiproliferative activity against human MCF7 assessed as reduction in cell viability incubated for 48 hrs by AlamarBlue assay; assay type: functional, cell-based; conditions: MCF7, 48 h

Chain of Cruzipain (P25779 whole entry): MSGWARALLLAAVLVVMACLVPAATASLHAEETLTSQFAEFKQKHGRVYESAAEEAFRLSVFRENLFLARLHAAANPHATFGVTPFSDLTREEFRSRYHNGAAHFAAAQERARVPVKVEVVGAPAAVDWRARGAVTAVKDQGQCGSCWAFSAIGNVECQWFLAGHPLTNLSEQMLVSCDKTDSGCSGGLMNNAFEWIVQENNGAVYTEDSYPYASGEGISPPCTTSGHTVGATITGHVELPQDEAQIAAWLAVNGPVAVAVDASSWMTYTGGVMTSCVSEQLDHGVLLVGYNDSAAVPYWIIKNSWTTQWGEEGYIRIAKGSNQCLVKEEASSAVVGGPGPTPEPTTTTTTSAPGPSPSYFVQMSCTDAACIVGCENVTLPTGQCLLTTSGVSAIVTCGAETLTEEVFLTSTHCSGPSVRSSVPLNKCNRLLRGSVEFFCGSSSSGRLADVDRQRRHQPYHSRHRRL

CC(=O)Oc1ccc(C2Oc3cc(OC(C)=O)cc(O)c3C(=O)C2c2c(OC(C)=O)cc(O)c3c(=O)cc(-c4ccc(OC(C)=O)c(OC(C)=O)c4)oc23)cc1 (racemic)
IC50 (Trypsin): 21100 nM
pIC50 (Cruzipain): 3.27
pIC50 (Papain): 6.22

COCOc1cc(O)c2c(c1)OC13C(=CC4CC1C(C)(C)OC3(C/C=C(\C)CO)C4=O)C2=O (stereo not drawn)
pIC50 (A549 [1]): 5.60
pIC50 (BGC-823): 5.42

C=C1C(=O)O[C@@H]2C[C@@H](C)C3=CC(=O)[C@@](C)(C[C@H](OC(=O)/C(C)=C\C)[C@@H]12)O3
pIC50 (HT-29 [2]): 6.25

C=C1C(=O)O[C@@H]2/C=C(/C)C3=CC(=O)[C@@](C)(C[C@H](OC(=O)C(C)C)[C@@H]12)O3
pIC50 (HT-29 [2]): 6.24

CC(C)=CCC/C(C)=C/Cc1c(O)c(CC=C(C)C)c2c(c1O)C(=O)C1=C[C@@H]3C[C@H]4C(C)(C)O[C@@](CC=C(C)C)(C3=O)[C@@]14O2
pIC50 (NCI-H1650): 5.96

C=C1C(=O)O[C@@H]2C/C(C)=C\CC(=O)[C@](C)(OC(C)=O)C[C@H](OC(=O)/C(C)=C\C)[C@@H]12
pIC50 (HT-29 [2]): 5.40

C=C1C(=O)O[C@@H]2[C@@H](O)[C@@H](C)C3=CC(=O)[C@@](C)(C[C@H](OC(=O)/C(C)=C\C)[C@@H]12)O3
pIC50 (HT-29 [2]): 5.18

O=C1c2c(O)cc(O)cc2OC(c2ccc(O)cc2)C1c1c(O)cc(O)c2c(=O)cc(-c3ccc(O)c(O)c3)oc12 (racemic)
IC50 (Trypsin): 3800 nM
pIC50 (Cruzipain): 5.02
pIC50 (Papain): 4.98

COCOc1cc(O)c2c(c1)OC13C(=CC4CC1C(C)(C)OC3(C/C=C(\C)CBr)C4=O)C2=O (stereo not drawn)
pIC50 (A549 [1]): 6.02
pIC50 (BGC-823): 5.80

C=C(C)C(=O)O[C@H]1C[C@@]2(C)OC(=CC2=O)[C@H](C)[C@H](O)[C@H]2OC(=O)C(=C)[C@@H]21
pIC50 (HT-29 [2]): 5.72

CC(C)=CCC[C@@]1(C)C=Cc2c(O)c3c(c(CCC(C)(C)O)c2O1)O[C@]12C(=C[C@H]4C[C@@H]1C(C)(C)O[C@@]2(C/C=C(/C)C(=O)O)C4=O)C3=O
pIC50 (NCI-H1650): 6.02

CC(C)=CCc1c2c(c(O)c3c1O[C@]14C(=C[C@H]5C[C@@H]1C(C)(C)O[C@@]4(C/C=C(\C)C=O)C5=O)C3=O)C=CC(C)(C)O2
pIC50 [3]: 5.48

COC[C@H]1O[C@@H](Oc2c3c(c(-c4ccc5c(c4)OCO5)c4cc(OC)c(OC)cc24)C(=O)OC3)[C@H](OC)[C@@H](OC)[C@H]1OC
pIC50 (A549 [4]): 8.00

CC(C)=CCC/C(C)=C/Cc1c(O)c(CC=C(C)C)c2c(c1O)C(=O)C1=C[C@@H]3C[C@H]4C(C)(C)O[C@@](C/C=C(\C)C=O)(C3=O)[C@@]14O2
pIC50 (NCI-H1650): 6.01

CC(C)=CCc1c2c(c(O)c3c1O[C@]14C(=C[C@H]5C[C@@H]1C(C)(C)O[C@@]4(C/C=C(/C)C(=O)O)C5=O)C3=O)CC(O)C(C)(C)O2 (single isomer, unassigned; (-))
pIC50 (HT-29 [5]): 5.54

C=C1C(=O)O[C@@H]2C[C@@H](C)[C@H](OC)CC(=O)[C@](C)(OC(C)=O)C[C@H](OC(=O)/C(C)=C\C)[C@@H]12
pIC50 (HT-29 [2]): 5.85

COc1ccc(C2Oc3cc(OC)cc(O)c3C(=O)C2c2c(OC)cc(O)c3c(=O)cc(-c4ccc(OC)c(OC)c4)oc23)cc1 (racemic)
IC50 (Trypsin): 1600 nM
pIC50 (Cruzipain): 3.63
pIC50 (Papain): 4.81

C/C1=C\CC[C@@]2(C)O[C@H]2[C@H]2OC(=O)[C@@H](CNc3ccn(C4OC(CO)[C@H](O)[C@@H]4O)c(=O)n3)[C@@H]2CC1 (stereo partly drawn)
pIC50 (HepG2): 6.62
pIC50 (MCF7): 5.28

C=C(C)C(O)Cc1c2c(c(O)c3c1O[C@]14C(=C[C@H]5C[C@@H]1C(C)(C)O[C@@]4(C/C=C(\C)C(=O)O)C5=O)C3=O)C=CC(C)(C)O2 (stereo partly drawn)
pIC50 (HT-29 [5]): 5.59

CC(C)=CCc1c(O)c(CC=C(C)C)c2c(c1O)C(=O)C1=C[C@H]3C[C@@H]4C(C)(C)O[C@@](C/C=C(/C)C(=O)O)(C3=O)[C@@]14O2
pIC50 (HT-29 [5]): 5.49

C=C(C)C(=O)O[C@H]1C[C@@]2(C)OC(=CC2=O)[C@H](C)C(CC(=C)C(=O)O[C@H]2C[C@@]3(C)OC(=CC3=O)/C(C)=C\[C@H]3OC(=O)C(=C)[C@H]23)[C@H]2OC(=O)C(=C)[C@H]12 (stereo partly drawn)
pIC50 (HT-29 [2]): 6.82

CC(C)=CCC[C@@]1(C)C=Cc2c(O)c3c(c(C/C=C(\C)CO)c2O1)O[C@]12C(=C[C@H]4C[C@@H]1C(C)(C)O[C@@]2(C/C=C(/C)C(=O)O)C4=O)C3=O
pIC50 (NCI-H1650): 6.21

COCOc1cc(O)c2c(c1)OC13C(=CC4CC1C(C)(C)OC3(CC1OC1(C)C)C4=O)C2=O (stereo not drawn)
pIC50 (A549 [1]): 5.57
pIC50 (BGC-823): 6.51
